Where two headings read alike, the source gives them in different places.
Tested on: THP1 luciferase reporter cells
Experiment: cells
Type: cell-based
[1] = Homo sapiens, THP-1, 16 h, read-out: THP1-ISG-Luc with PFO, EC50
[2] = Homo sapiens, THP-1, 16 h, read-out: THP-ISG-Luc without PFO, EC50
[3] = 16 hours, read-out: THP1-ISG-Luc with PFO, EC50
[4] = 16 hours, read-out: THP-ISG-Luc without PFO, EC50

Molecule BP1(=O)OC[C@H]2O[C@@H](n3cnc4c(=O)[nH]c(N)nc43)C(OP(=O)(O)OC[C@H]3O[C@@H](n4cnc5c(N)ncnc54)C(O)C3O1)C2O (stereo in doubt) [EA10] has an EC50 [1] of under 100 nM and an EC50 [2] of under 30000 nM.
Molecule BP1(=O)OC[C@H]2O[C@@H](n3cnc4c(=O)[nH]c(N)nc43)[C@@H](OP(B)(=O)OC[C@H]3O[C@@H](n4cnc5c(N)ncnc54)[C@@H](O)C3O1)C2O (stereo in doubt) [EA11] has an EC50 [1] of under 100 nM and an EC50 [2] of under 30000 nM.
Nc1nc2c(ccn2[C@@H]2O[C@@H]3COP(=O)(O)OC4C(O)[C@H](n5cnc6c(N)ncnc65)O[C@@H]4COP(=O)(S)OC2C3O)c(=O)[nH]1 (stereo in doubt) [EB3] gave an EC50 [1] of under 100 nM and an EC50 [2] of under 30000 nM.
Work on Nc1nc2c(ccn2[C@@H]2O[C@@H]3COP(=O)(O)OC4C(O)[C@H](n5cnc6c(NCCO)ncnc65)O[C@@H]4COP(=O)(S)OC2C3O)c(=O)[nH]1 (stereo in doubt) [EB5] yielded an EC50 [1] of 100 to 1000 nM and an EC50 [2] of over 100000 nM.
With Nc1nc2c(ncn2[C@@H]2O[C@@H]3COP(=O)(O)OC4C(O)[C@H](n5ccc6c(N)ncnc65)O[C@@H]4COP(=O)(O)OC2C3OCC(F)(F)F)c(=O)[nH]1 (stereo in doubt) [EC3] the EC50 [1] was 100 to 1000 nM and the EC50 [2] was under 30000 nM.
In the case of COC1C2OP(=O)(O)OC[C@H]3O[C@@H](n4cnc5c(=O)[nH]c(N)nc54)C(OP(=O)(O)OC[C@H]2O[C@H]1n1cnc2c(N)ncnc21)C3OCC(F)(F)F (stereo in doubt) [EC10], the EC50 [1] is reported as over 1000 nM and the EC50 [2] is reported as over 100000 nM.
Molecule Nc1nc2c(ncn2[C@@H]2O[C@@H]3COP(=O)(O)OC4C(O)[C@H](n5cnc6c(N)ncnc65)O[C@@H]4COP(=O)(O)OC2C3CCO)c(=O)[nH]1 (stereo in doubt) [EC12] has an EC50 [1] of under 100 nM and an EC50 [2] of under 30000 nM.
Molecule Nc1nc2c(ncn2[C@@H]2O[C@@H]3COP(=O)(O)OC4C(O)[C@@H](COP(=O)(O)OC2C3OCC(F)(F)F)O[C@H]4n2cnc3c(N)ncnc32)c(=O)[nH]1 (stereo in doubt) [EC13] has an EC50 [1] of 100 to 1000 nM and an EC50 [2] of under 30000 nM.
Molecule Nc1nc2c(ncn2[C@@H]2O[C@@H]3COP(=O)(O)OC4C[C@H](n5ccc6ccccc65)O[C@@H]4COP(=O)(O)OC2C3OCC(F)(F)F)c(=O)[nH]1 (stereo in doubt) [EC16] has an EC50 [1] of over 1000 nM and an EC50 [2] of over 100000 nM.
Nc1nc2c(ncn2[C@@H]2O[C@@H]3COP(=O)(O)OC4C[C@H](c5cccc6ccccc56)O[C@@H]4COP(=O)(O)OC2C3OCC(F)(F)F)c(=O)[nH]1 (stereo in doubt) [EC19] showed an EC50 [1] of over 1000 nM and an EC50 [2] of over 100000 nM.
Work on Nc1nc2c(ncn2[C@@H]2O[C@@H]3COP(=O)(O)OC4C(O)[C@H](n5cnc6c(N)ncnc65)O[C@@H]4CNc4c(c(=O)c4=O)NC2C3O)c(=O)[nH]1 (stereo in doubt) [EC22] yielded an EC50 [1] of over 1000 nM and an EC50 [2] of over 100000 nM.
Work on CCCC1C2OP(=O)(O)OC[C@H]3O[C@@H](n4cnc5c(N)ncnc54)C(O)C3OP(=O)(O)OC[C@H]1O[C@H]2n1cnc2c(=O)[nH]c(N)nc21 (stereo in doubt) [EC24] yielded an EC50 [1] of under 100 nM and an EC50 [2] of under 30000 nM.
In the case of Nc1nc2c(ncn2[C@@H]2O[C@@H]3COP(=O)(O)OC4C(O)[C@H](n5cnc6c5ncn5ccnc65)O[C@@H]4COP(=O)(O)OC2C3OCC(F)(F)F)c(=O)[nH]1 (stereo in doubt) [EC26], the EC50 [1] is reported as 100 to 1000 nM and the EC50 [2] is reported as over 100000 nM.
In the case of Nc1nc2c(ncn2[C@@H]2O[C@@H]3COP(=O)(O)OC4C(O)[C@H](n5cnc6c(N)ncnc65)O[C@@H]4COP(=O)(O)OC2C3O)c(=O)[nH]1 (stereo in doubt) [Example E1], the EC50 [1] is reported as under 100 nM and the EC50 [2] is reported as under 30000 nM.
In the case of COC1C2OP(=O)(O)OC[C@H]3O[C@@H](n4cnc5c(N)ncnc54)C(O)C3OP(=O)(O)OC[C@H]1O[C@H]2n1cnc2c(=O)[nH]c(N)nc21 (stereo in doubt) [Example E3], the EC50 [1] is reported as under 100 nM and the EC50 [2] is reported as under 30000 nM.
Molecule C#CCOc1nc(N)nc2c1ncn2[C@@H]1O[C@@H]2COP(=O)(O)OC3C(O)[C@H](n4cnc5c(N)ncnc54)O[C@@H]3COP(=O)(O)OC1C2O (stereo in doubt) [Example E4] has an EC50 [1] of under 100 nM and an EC50 [2] of under 30000 nM.
With Nc1nc2c(ncn2[C@@H]2O[C@@H]3COP(=O)(O)OC4C(O)[C@H](n5ccc6c(N)ncnc65)O[C@@H]4COP(=O)(O)OC2C3O)c(=O)[nH]1 (stereo in doubt) [Example E5] the EC50 [1] was over 1000 nM and the EC50 [2] was over 100000 nM.
C#CCOC1[C@H]2OP(=O)(O)OC[C@H]3O[C@@H](n4cnc5c(=O)[nH]c(N)nc54)[C@@H](OP(=O)(O)OC[C@H]2O[C@H]1n1cnc2c(N)ncnc21)C3O (stereo partly drawn) [EA3] was tested, and the EC50 [1] was over 1000 nM and the EC50 [2] was over 100000 nM.
Nc1ncnc2c1ccn2[C@@H]1O[C@@H]2COP(=O)(S)OC3C(O)[C@@H](COP(=O)(O)OC2C1O)O[C@H]3n1ccc2c(N)ncnc21 (stereo partly drawn) [EC6] gave an EC50 [1] of over 1000 nM and an EC50 [2] of over 100000 nM.
Work on Nc1ncnc2c1ccn2[C@@H]1O[C@@H]2COP(=O)(S)OC3C(O)[C@@H](COP(=O)(O)OC2C1O)O[C@H]3n1ccc2c(N)ncnc21 (stereo partly drawn) [EC7] yielded an EC50 [3] of over 1000 nM and an EC50 [4] of over 100000 nM.
Work on Nc1nc2c(ncn2[C@@H]2O[C@@H]3COP(=O)(S)OC4C(O)[C@H](n5nnc6c(N)ncnc65)O[C@@H]4COP(=O)(S)OC2C3O)c(=O)[nH]1 (stereo partly drawn) [Example E19] yielded an EC50 [1] of over 1000 nM and an EC50 [2] of over 100000 nM.
Nc1nc2c(ccn2[C@@H]2O[C@@H]3COP(=O)(S)OC4[C@@H](COP(=O)(S)O[C@H]2C3O)O[C@@H](n2ccc3c(N)ncnc32)[C@H]4O)c(=O)[nH]1 (stereo partly drawn) [Example E23] showed an EC50 [1] of under 100 nM and an EC50 [2] of under 30000 nM.
For Nc1nc2c(ncn2[C@@H]2O[C@@H]3COP(=O)(O)O[C@@H]4C(O)[C@H](n5cnc6c(N)ncnc65)O[C@@H]4COP(=O)(N4CCOCC4)OC2[C@H]3O)c(=O)[nH]1 (stereo partly drawn) [Example E24], the EC50 (Homo sapiens, THP-1, 16 hours, read-out: THP1-ISG-Luc with PFO, EC50) was 100 to 1000 nM and the EC50 (Homo sapiens, THP-1, 16 hours, read-out: THP-ISG-Luc without PFO, EC50) was under 30000 nM.
EC23 showed an EC50 [3] of over 1000 nM and an EC50 [4] of over 100000 nM.
